Measured values: patent US11419852B2, “Beta-lactam compounds or salts thereof for use in long-acting prevention or treatment of a glucose metabolism disorder” (GLYCOLYSIS BIOMED CO., LTD., priority 2019, dated 2022)
Marks after values point to notes of the source that are not given here.

Tests used:
[1] = Body weight of mice recorded weekly; assay type: in vivo
Experimental: Four to five weeks old db/db mice (BKS.Cg-Dock7^m+/+Lepr^db/JNarl) and m/m mice (BKS.Cg-Dock7^m+/Dock7^m+) were obtained from National Laboratory Animal Center ([…], Taiwan). […] PMI Nutrition International, Brentwood, Mo.) and water ad libitum. […] The mouse body weight (bw) and the amounts of water and food intake were recorded weekly for the entire study period.

db/db mice = assay: Oral glucose tolerance test (OGTT); assay type: in vivo; conditions: for Level of OGTT (blood glucose): Ex 2 G4 db/db, DMH i.p. 0.1 mg/g bw/day, dosing 6 weeks
Experimental: Four to five weeks old db/db mice (BKS.Cg-Dock7^m+/+Lepr^db/JNarl) and m/m mice (BKS.Cg-Dock7^m+/Dock7^m+) were obtained from National Laboratory Animal Center ([…], Taiwan). […] PMI Nutrition International, Brentwood, Mo.) and water ad libitum. […] Blood was sampled from the tail vein, and FPG levels were measured and recorded as the basic blood glucose levels. […] The total area under the curve (AUC) in OGTT was plotted and calculated by the Area Under Coordinates Program (StatsToDo Server, Department of Obstetrics and Gynecology, Chinese University of Hong Kong).

C[C@@H](O)[C@H]1C(=O)N2C(C(=O)O)=C(S[C@@H]3CN[C@H](C(=O)Nc4cccc(C(=O)O)c4)C3)[C@H](C)[C@H]12 [DMH, ertapenem]
Effect on body weight in db/db mice ([1]; Ex 2, 0.1 mg/g bw and 0.4 mg/g bw): positive effects of body weight lowering
Body weight ([1]; Ex 2 G3 db/db, 0.3 mg/g bw/day (row printed 0.3 DMH), dosing 6 weeks, week 14): 43.94 ± 1.54^b
Body weight ([1]; Ex 2 G3 db/db, 0.3 mg/g bw/day (row printed 0.3 DMH), dosing 6 weeks, week 15): 46.46 ± 1.39^b
Body weight ([1]; Ex 2 G3 db/db, 0.3 mg/g bw/day (row printed 0.3 DMH), dosing 6 weeks, week 16): 47.68 ± 1.32^b
Body weight ([1]; Ex 2 G3 db/db, 0.3 mg/g bw/day (row printed 0.3 DMH), dosing 6 weeks, week 17): 48.31 ± 1.38^b
Body weight ([1]; Ex 2 G3 db/db, 0.3 mg/g bw/day (row printed 0.3 DMH), dosing 6 weeks, week 18): 49.57 ± 1.47^b
Body weight ([1]; Ex 2 G3 db/db, 0.3 mg/g bw/day (row printed 0.3 DMH), dosing 6 weeks, week 19): 51.98 ± 1.66^b
Body weight ([1]; Ex 2 G4 db/db, DMH i.p. 0.1 mg/g bw/day, dosing 6 weeks, Baseline): 29.44 ± 2.09^b
Body weight ([1]; Ex 2 G4 db/db, DMH i.p. 0.1 mg/g bw/day, dosing 6 weeks, week 1): 29.21 ± 2.01^b
Body weight ([1]; Ex 2 G4 db/db, DMH i.p. 0.1 mg/g bw/day, dosing 6 weeks, week 2): 29.95 ± 1.79^b
Body weight ([1]; Ex 2 G4 db/db, DMH i.p. 0.1 mg/g bw/day, dosing 6 weeks, week 3): 32.38 ± 1.38^b
Body weight ([1]; Ex 2 G4 db/db, DMH i.p. 0.1 mg/g bw/day, dosing 6 weeks, week 4): 33.49 ± 1.13^b
Body weight ([1]; Ex 2 G4 db/db, DMH i.p. 0.1 mg/g bw/day, dosing 6 weeks, week 5): 35.72 ± 1.01^b
Body weight ([1]; Ex 2 G4 db/db, DMH i.p. 0.1 mg/g bw/day, dosing 6 weeks, week 6): 36.73 ± 0.95^b
Body weight ([1]; Ex 2 G4 db/db, DMH i.p. 0.1 mg/g bw/day, dosing 6 weeks, week 7): 36.68 ± 0.83^b
Body weight ([1]; Ex 2 G4 db/db, DMH i.p. 0.1 mg/g bw/day, dosing 6 weeks, week 8): 37.83 ± 0.77^b
Body weight ([1]; Ex 2 G4 db/db, DMH i.p. 0.1 mg/g bw/day, dosing 6 weeks, week 9): 38.46 ± 0.8^b
Body weight ([1]; Ex 2 G4 db/db, DMH i.p. 0.1 mg/g bw/day, dosing 6 weeks, week 10): 39.43 ± 0.81^b
Body weight ([1]; Ex 2 G4 db/db, DMH i.p. 0.1 mg/g bw/day, dosing 6 weeks, week 11): 40.86 ± 0.82^b
Body weight ([1]; Ex 2 G4 db/db, DMH i.p. 0.1 mg/g bw/day, dosing 6 weeks, week 12): 42.59 ± 0.87^b
Body weight ([1]; Ex 2 G4 db/db, DMH i.p. 0.1 mg/g bw/day, dosing 6 weeks, week 13): 44.21 ± 0.99^b
Body weight ([1]; Ex 2 G4 db/db, DMH i.p. 0.1 mg/g bw/day, dosing 6 weeks, week 14): 43.56 ± 1.08^b
Body weight ([1]; Ex 2 G4 db/db, DMH i.p. 0.1 mg/g bw/day, dosing 6 weeks, week 15): 45.90 ± 1.18^b
Body weight ([1]; Ex 2 G4 db/db, DMH i.p. 0.1 mg/g bw/day, dosing 6 weeks, week 16): 46.80 ± 1.29^b
Body weight ([1]; Ex 2 G4 db/db, DMH i.p. 0.1 mg/g bw/day, dosing 6 weeks, week 17): 47.21 ± 1.26^b
Body weight ([1]; Ex 2 G4 db/db, DMH i.p. 0.1 mg/g bw/day, dosing 6 weeks, week 18): 48.14 ± 1.23^b
Body weight ([1]; Ex 2 G4 db/db, DMH i.p. 0.1 mg/g bw/day, dosing 6 weeks, week 19): 50.91 ± 1.22^b
Body weight ([1]; Ex 2 G5 db/db, DMH i.p. 0.2 mg/g bw/day, dosing 6 weeks, Baseline): 31.70 ± 1.46^b
Body weight ([1]; Ex 2 G5 db/db, DMH i.p. 0.2 mg/g bw/day, dosing 6 weeks, week 1): 31.31 ± 1.48^b
Body weight ([1]; Ex 2 G5 db/db, DMH i.p. 0.2 mg/g bw/day, dosing 6 weeks, week 2): 31.81 ± 1.12^bc
Body weight ([1]; Ex 2 G5 db/db, DMH i.p. 0.2 mg/g bw/day, dosing 6 weeks, week 3): 34.36 ± 0.75^bc
Body weight ([1]; Ex 2 G5 db/db, DMH i.p. 0.2 mg/g bw/day, dosing 6 weeks, week 4): 35.55 ± 0.61^bc
Body weight ([1]; Ex 2 G5 db/db, DMH i.p. 0.2 mg/g bw/day, dosing 6 weeks, week 5): 37.76 ± 0.49^bc
Body weight ([1]; Ex 2 G5 db/db, DMH i.p. 0.2 mg/g bw/day, dosing 6 weeks, week 6): 39.06 ± 0.54^bc
Body weight ([1]; Ex 2 G5 db/db, DMH i.p. 0.2 mg/g bw/day, dosing 6 weeks, week 7): 39.07 ± 0.45^bc
Body weight ([1]; Ex 2 G5 db/db, DMH i.p. 0.2 mg/g bw/day, dosing 6 weeks, week 8): 39.99 ± 0.39^bc
Body weight ([1]; Ex 2 G5 db/db, DMH i.p. 0.2 mg/g bw/day, dosing 6 weeks, week 9): 40.63 ± 0.27^bcd
Body weight ([1]; Ex 2 G5 db/db, DMH i.p. 0.2 mg/g bw/day, dosing 6 weeks, week 10): 41.39 ± 0.29^b
Body weight ([1]; Ex 2 G5 db/db, DMH i.p. 0.2 mg/g bw/day, dosing 6 weeks, week 11): 42.98 ± 0.35^b
Body weight ([1]; Ex 2 G5 db/db, DMH i.p. 0.2 mg/g bw/day, dosing 6 weeks, week 12): 44.66 ± 0.38^b
Body weight ([1]; Ex 2 G5 db/db, DMH i.p. 0.2 mg/g bw/day, dosing 6 weeks, week 13): 46.52 ± 0.45^b
Body weight ([1]; Ex 2 G5 db/db, DMH i.p. 0.2 mg/g bw/day, dosing 6 weeks, week 14): 46.10 ± 0.51^b
Body weight ([1]; Ex 2 G5 db/db, DMH i.p. 0.2 mg/g bw/day, dosing 6 weeks, week 15): 48.58 ± 0.55^b
Body weight ([1]; Ex 2 G5 db/db, DMH i.p. 0.2 mg/g bw/day, dosing 6 weeks, week 16): 49.65 ± 0.63^b
Body weight ([1]; Ex 2 G5 db/db, DMH i.p. 0.2 mg/g bw/day, dosing 6 weeks, week 17): 49.96 ± 0.68^b
Body weight ([1]; Ex 2 G5 db/db, DMH i.p. 0.2 mg/g bw/day, dosing 6 weeks, week 18): 50.71 ± 0.87^b
Body weight ([1]; Ex 2 G5 db/db, DMH i.p. 0.2 mg/g bw/day, dosing 6 weeks, week 19): 52.73 ± 1.04^b
Body weight ([1]; Ex 2 G6 db/db, DMH i.p. 0.4 mg/g bw/day, dosing 6 weeks, Baseline): 31.61 ± 1.03^b
Body weight ([1]; Ex 2 G6 db/db, DMH i.p. 0.4 mg/g bw/day, dosing 6 weeks, week 1): 31.23 ± 0.98^b
Body weight ([1]; Ex 2 G6 db/db, DMH i.p. 0.4 mg/g bw/day, dosing 6 weeks, week 2): 31.62 ± 0.77^bc
Body weight ([1]; Ex 2 G6 db/db, DMH i.p. 0.4 mg/g bw/day, dosing 6 weeks, week 3): 33.98 ± 0.54^b
Body weight ([1]; Ex 2 G6 db/db, DMH i.p. 0.4 mg/g bw/day, dosing 6 weeks, week 4): 34.29 ± 0.59^b
Body weight ([1]; Ex 2 G6 db/db, DMH i.p. 0.4 mg/g bw/day, dosing 6 weeks, week 5): 36.44 ± 0.71^b
Body weight ([1]; Ex 2 G6 db/db, DMH i.p. 0.4 mg/g bw/day, dosing 6 weeks, week 6): 37.16 ± 0.8^b
Body weight ([1]; Ex 2 G6 db/db, DMH i.p. 0.4 mg/g bw/day, dosing 6 weeks, week 7): 37.16 ± 0.93^b
Body weight ([1]; Ex 2 G6 db/db, DMH i.p. 0.4 mg/g bw/day, dosing 6 weeks, week 8): 38.67 ± 1.24^b
Body weight ([1]; Ex 2 G6 db/db, DMH i.p. 0.4 mg/g bw/day, dosing 6 weeks, week 9): 39.72 ± 1.36^bc
Body weight ([1]; Ex 2 G6 db/db, DMH i.p. 0.4 mg/g bw/day, dosing 6 weeks, week 10): 40.81 ± 1.34^b
Body weight ([1]; Ex 2 G6 db/db, DMH i.p. 0.4 mg/g bw/day, dosing 6 weeks, week 11): 42.61 ± 1.31^b
Body weight ([1]; Ex 2 G6 db/db, DMH i.p. 0.4 mg/g bw/day, dosing 6 weeks, week 12): 44.54 ± 1.63^b
Body weight ([1]; Ex 2 G6 db/db, DMH i.p. 0.4 mg/g bw/day, dosing 6 weeks, week 13): 45.69 ± 1.86^b
Body weight ([1]; Ex 2 G6 db/db, DMH i.p. 0.4 mg/g bw/day, dosing 6 weeks, week 14): 45.08 ± 1.89^b
Body weight ([1]; Ex 2 G6 db/db, DMH i.p. 0.4 mg/g bw/day, dosing 6 weeks, week 15): 47.29 ± 1.95^b
Body weight ([1]; Ex 2 G6 db/db, DMH i.p. 0.4 mg/g bw/day, dosing 6 weeks, week 16): 48.79 ± 1.95^b
Body weight ([1]; Ex 2 G6 db/db, DMH i.p. 0.4 mg/g bw/day, dosing 6 weeks, week 17): 48.99 ± 1.87^b
Body weight ([1]; Ex 2 G6 db/db, DMH i.p. 0.4 mg/g bw/day, dosing 6 weeks, week 18): 50.70 ± 1.87^b
Body weight ([1]; Ex 2 G6 db/db, DMH i.p. 0.4 mg/g bw/day, dosing 6 weeks, week 19): 53.56 ± 1.99^b
Body weight ([1]; Ex 3: db/db mice, daily dosing 3 weeks at doses of Table 10, Baseline): 29.3 ± 1^b
Body weight ([1]; Ex 3: db/db mice, daily dosing 3 weeks at doses of Table 10, Final): 38.3 ± 1^c
Body weight ([1]; Ex 3: db/db mice, daily dosing 3 weeks at doses of Table 10, Week 3): 33.5 ± 1^cd
Body weight ([1]; Ex 3: db/db mice, daily dosing 3 weeks at doses of Table 10, Week 6 (stopped for 3 weeks)): 35.1 ± 1^b
Body weight ([1]; Ex 3: db/db mice, daily dosing 3 weeks at doses of Table 10, Week 9 (stopped for 6 weeks)): 40.0 ± 1^c
OGTT AUC vs untreated mice (DB group) (db/db mice; Ex 1, week 3, P<0.05): significantly smaller
Glucose concentration in OGTT vs DB group (db/db mice; Ex 1, week 3, time points of 90 min and 120 min (FIG. 1)): significantly lower
OGTT AUC (db/db mice; Ex 1: db/db mice, ertapenem i.p. 0.41 mg/g bw/day, 3 weeks): 1298 ± 186
OGTT AUCs vs metformin-treated (G3) and untreated db/db mice (G2) (db/db mice; Ex 2, G4 and G5, weeks 6, 12, and 16, P<0.05): significantly smaller
Oral glucose tolerance of db/db mice after stop (db/db mice; Ex 2, after the treatment had been stopped for 10 weeks): effectively increased
Oral glucose tolerance (OGT) of db/db mice (db/db mice; Ex 2, most time points (ertapenem: weeks 6 and 12)): significantly increased
Level of OGTT (blood glucose) (db/db mice; Week 6, 0 min): 219 ± 36 mg/dL
Level of OGTT (blood glucose) (db/db mice; Week 6, 15 min): 866 ± 38^bc
Level of OGTT (blood glucose) (db/db mice; Week 6, 30 min): 671 ± 62 mg/dL
Level of OGTT (blood glucose) (db/db mice; Week 6, 60 min): 486 ± 57 mg/dL
Level of OGTT (blood glucose) (db/db mice; Week 6, 120 min): 286 ± 44^bc
Level of OGTT (blood glucose) (db/db mice; Week 12, 0 min): 154 ± 30^ab
Level of OGTT (blood glucose) (db/db mice; Week 12, 15 min): 866 ± 36 mg/dL
